From EPA's ToxValDB 9.5 (doi:10.2903/j.efsa.2009.1350)
In brackets after ≈: the same amount, converted by molar mass.

Columns and labels:
[1] = tested on: Typhlodromus pyri; test: LR50; higher = less toxic; conditions: acute; duration: 7 days; mortality
[2] = tested on: Daphnia magna; conditions: chronic/long-term; duration: 21 days; reproduction
[3] = tested on: Oncorhynchus mykiss
[4] = tested on: Rattus norvegicus; conditions: for LD50: acute; for NOAEL: histopathology: nonneoplastic
[5] = tested on: Colinus virginianus
[6] = tested on: Bibionidae; conditions: chronic/long-term; duration: 28 days
[7] = tested on: Tagia sp.
[8] = tested on: Canidae; conditions: subchronic; duration: 90 days; oral; diet; Dog Other; clinical signs
[9] = tested on: Cyprinodon variegatus; conditions: mortality
[10] = tested on: Anas platyrhynchos; conditions: for NOEC: reproductive
[11] = tested on: Lolium perenne; conditions: acute; duration: 21 days; other
[12] = tested on: Apis mellifera; conditions: acute; duration: 48 hours; oral; unspecified; mortality
[13] = tested on: Neomysis kadiakensis; conditions: chronic/long-term; duration: 28 days; reproduction

CCCOc1nc2ccc(I)cc2c(=O)n1CCC [Proquinazid]
LR50 [1]: 47.9 g/ha
NOEC [2]: 0.0018 mg/L
LC50 ([3]; acute, duration: 96 hours, mortality): 0.349 µg/mL (≈ 0.938 µM)
NOEC ([3]; chronic/long-term, duration: 90 days, other): 0.003 mg/L
LD50 ([4]; oral, mortality): 4850 mg/kg-day
NOAEL ([4]; chronic, duration: 2 years): 1.2 mg/kg-day
NOEL ([4]; chronic, mortality): > 600 mg/kg-day
NOEL ([4]; reproduction developmental, reproduction): 35.1 mg/kg-day
NOAEL ([4]; subchronic, duration: 90 days, oral, diet): 2 mg/kg-day
LC50 ([5]; acute, oral, diet, mortality): 1370 mg/kg-day
LD50 ([5]; acute, oral, mortality): > 2250 mg/kg-day
NOEC ([5]; reproduction developmental): 7.78 mg/kg-day
NOEC [6]: 0.465 mg/L
LC50 ([7]; acute, duration: 14 days, mortality): > 1000 mg/kg
NOEC ([7]; chronic/long-term, duration: 56 days): > 50.9 mg/kg
NOAEL [8]: 19 mg/kg-day
LC50 ([9]; acute, duration: 96 hours): > 0.58 µg/mL
NOEC ([9]; chronic/long-term, duration: 36 days): 0.00872 mg/L
NOEC ([10]; F): 29.6 mg/kg-day
NOEC ([10]; M): 31.5 mg/kg-day
LC50 ([10]; short-term, oral, feed, mortality): 3110 mg/kg-day
LEL [11]: 75 g/ha
LD50 [12]: > 125 µg/piece
NOEC [13]: 0.0105 mg/L

CCCOc1nc2ccccc2c(=O)n1CCC [2-Propoxy-3-propyl-4(3H)-quinazolinone]
LD50 ([4]; oral, mortality): 2050 mg/kg-day
